Results reported in US8778958B2, “Synthesis of metabolically stable agents for alcohol and drug abuse” (priority 2008, dated 2014).
Like-named read-outs stand apart in the source and are kept apart here.

Experiments:
Solubility in H2O = conditions: for solubility: water; for Solubility in H2O: salt as labelled
κ-opioid receptor = molecular target: T1, κ-opioid receptor (Homo sapiens, UniProt P41145); assay: biochemical; assay type: binding; conditions: read-out: Ki (nM) ± SEM, κ
T1 construct: expressed in transfected cells; host or cells: CHO cells
T1 sequence (P41145 whole entry): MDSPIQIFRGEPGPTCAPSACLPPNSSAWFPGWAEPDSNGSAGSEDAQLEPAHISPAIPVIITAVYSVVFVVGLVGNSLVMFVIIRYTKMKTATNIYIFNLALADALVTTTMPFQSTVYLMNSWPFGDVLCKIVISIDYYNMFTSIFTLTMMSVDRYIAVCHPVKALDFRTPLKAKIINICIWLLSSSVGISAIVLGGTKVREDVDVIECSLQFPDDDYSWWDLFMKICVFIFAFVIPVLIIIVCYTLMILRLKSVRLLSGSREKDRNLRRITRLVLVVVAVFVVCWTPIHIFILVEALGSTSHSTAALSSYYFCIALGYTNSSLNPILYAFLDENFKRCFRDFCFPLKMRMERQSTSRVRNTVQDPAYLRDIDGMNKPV

δ-opioid receptor = molecular target: T2, δ-opioid receptor (Homo sapiens, UniProt P41143); assay: biochemical; assay type: binding; conditions: Table 1b; for Ki: N-oxides; for Inhibition of agonist binding, δ: concentration not given
T2 construct: expressed in transfected cells; host or cells: CHO cells
T2 sequence (P41143 whole entry): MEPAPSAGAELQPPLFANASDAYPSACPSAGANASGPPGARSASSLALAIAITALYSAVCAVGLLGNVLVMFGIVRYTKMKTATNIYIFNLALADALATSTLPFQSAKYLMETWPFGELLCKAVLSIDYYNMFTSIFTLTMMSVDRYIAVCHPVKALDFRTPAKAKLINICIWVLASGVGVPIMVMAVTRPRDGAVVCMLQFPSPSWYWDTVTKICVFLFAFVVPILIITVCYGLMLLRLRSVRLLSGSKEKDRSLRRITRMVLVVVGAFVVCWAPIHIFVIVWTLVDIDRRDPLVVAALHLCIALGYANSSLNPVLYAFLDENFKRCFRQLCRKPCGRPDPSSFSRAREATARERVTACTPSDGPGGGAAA

μ-opioid receptor = molecular target: T3, μ-opioid receptor (Homo sapiens, UniProt P35372); assay: biochemical; assay type: binding
T3 construct: expressed in transfected cells; host or cells: CHO cells
T3 sequence (P35372 whole entry): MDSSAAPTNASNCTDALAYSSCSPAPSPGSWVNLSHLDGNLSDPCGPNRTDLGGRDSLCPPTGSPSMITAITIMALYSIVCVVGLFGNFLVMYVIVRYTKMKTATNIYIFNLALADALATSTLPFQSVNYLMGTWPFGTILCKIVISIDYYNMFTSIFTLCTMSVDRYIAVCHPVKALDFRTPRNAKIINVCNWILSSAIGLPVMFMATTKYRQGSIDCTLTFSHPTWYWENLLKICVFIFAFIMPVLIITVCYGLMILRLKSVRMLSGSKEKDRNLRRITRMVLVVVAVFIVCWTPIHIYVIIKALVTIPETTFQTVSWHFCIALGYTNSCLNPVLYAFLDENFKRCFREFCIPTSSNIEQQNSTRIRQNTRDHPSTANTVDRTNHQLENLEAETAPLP

[1] = Ki (nM) ± SEM, μ, Table 1b, N-oxides

SMILES	Solubility in H2O (Solubility in H2O)	Ki (κ-opioid receptor)	Ki (δ-opioid receptor; Ki (nM) ± SEM, δ)	Ki (μ-opioid receptor; [1])	further results
CN(C(=O)/C=C/c1ccoc1)[C@H]1CC[C@@]2(O)[C@H]3Cc4ccc(O)c5c4[C@@]2(CCN3CC2CC2)[C@H]1O5.O=C(O)C(=O)O (relative stereo) [20a—Oxalate, 17-Cyclopropylmethyl-3,14β-dihydroxy-4,5α-epoxy-6α-[N-methyl-trans-3-(3-furyl)acrylamido]morphinan oxalate]					solubility (Solubility in H2O): 16 mg/mL
O=C(/C=C/c1ccoc1)N[C@@H]1CC[C@@]2(O)[C@H]3Cc4ccc(O)c5c4[C@@]2(CCN3CC2CC2)[C@H]1O5.O=C(O)C(=O)O (relative stereo) [Compound 19b.Oxalate, 17-Cyclopropylmethyl-3,14β-dihydroxy-4,5α-epoxy-6β-[-trans-3-(3-furyl)acrylamido]morphinan oxalate]					solubility (Solubility in H2O): 24 mg/mL
CN(C(=O)/C=C/c1ccoc1)[C@@H]1CC[C@@]2(O)[C@H]3Cc4ccc(O)c5c4[C@@]2(CCN3CC2CC2)[C@H]1O5.O=C(O)C(=O)O (relative stereo) [Compound 20b-oxalate, 17-Cyclopropylmethyl-3,14β-dihydroxy-4,5α-epoxy-6β-[N-methyl-trans-3-(3-furyl)acrylamido]morphinan oxalate]					solubility (Solubility in H2O): 32 mg/mL
CN(C(=O)c1ccc(C(F)(F)F)cc1)[C@@H]1CC[C@@]2(O)[C@H]3Cc4ccc(O)c5c4[C@@]2(CCN3CC2CC2)[C@H]1O5.O=C(O)C(=O)O [13b—Oxalate, 6-β-(4′-Trifluoromethyl)-N-methylbenzamido-14-hydroxy-17-(cyclopropylmethyl)nordesmorphine oxalate]	4.7 mg/mL				
CN(C(=O)c1ccc(Br)cc1)[C@H]1CC[C@@]2(O)[C@H]3Cc4ccc(O)c5c4[C@@]2(CCN3CC2CC2)[C@H]1O5.O=C(O)C(=O)O [14a—Oxalate, 6-α-(4′-Bromo)-N-methylbenzamido-14-hydroxy-17-(cyclopropylmethyl)nordesmorphine oxalate]	6.7 mg/mL				
CN(C(=O)c1ccc(Br)cc1)[C@@H]1CC[C@@]2(O)[C@H]3Cc4ccc(O)c5c4[C@@]2(CCN3CC2CC2)[C@H]1O5.O=C(O)C(=O)O [14b. Oxalate, 6-β-(4′-Bromo)-N-methylbenzamido-14-hydroxy-17-(cyclopropylmethyl)nordesmorphine Oxalate]	20 mg/mL				
CN(C(=O)c1ccc(I)cc1)[C@H]1CC[C@@]2(O)[C@H]3Cc4ccc(O)c5c4[C@@]2(CCN3CC2CC2)[C@H]1O5.O=C(O)C(=O)O [15a—Oxalate, 6-α-(4′-Iodo)-N-methylbenzamido-14-hydroxy-17-(cyclopropylmethyl)nordesmorphine oxalate]	5 mg/mL				
CN(C(=O)c1ccc(I)cc1)[C@@H]1CC[C@@]2(O)[C@H]3Cc4ccc(O)c5c4[C@@]2(CCN3CC2CC2)[C@H]1O5.O=C(O)C(=O)O [15b—Oxalate, 6-β-(4′-Iodo)-N-methylbenzamido-14-hydroxy-17-(cyclopropylmethyl)nordesmorphine oxalate]	20 mg/mL				
CN(C(=O)c1ccc(C(C)(C)C)cc1)[C@H]1CC[C@@]2(O)[C@H]3Cc4ccc(O)c5c4[C@@]2(CCN3CC2CC2)[C@H]1O5.O=C(O)C(=O)O [16a—Oxalate, 6-α-(4′-t-Butyl)-N-methylbenzamido-14-hydroxy-17-(cyclopropylmethyl)nordesmorphine oxalate]	3.3 mg/mL				
CN(C(=O)c1ccc(Cl)cc1)[C@H]1CC[C@@]2(O)[C@H]3Cc4ccc(O)c5c4[C@@]2(CCN3CC2CC2)[C@H]1O5.O=C(O)C(=O)O [17a—Oxalate, 6-α-(4′-Chloro)-N-methylbenzamido-14-hydroxy-17-(cyclopropylmethyl)nordesmorphine oxalate]	10 mg/mL				
CN(C(=O)c1ccc(Cl)cc1)[C@@H]1CC[C@@]2(O)[C@H]3Cc4ccc(O)c5c4[C@@]2(CCN3CC2CC2)[C@H]1O5.O=C(O)C(=O)O [17b—Oxalate, 6-β-(4′-Chloro)-N-methylbenzamido-14-hydroxy-17-(cyclopropylmethyl)nordesmorphine oxalate]	6 mg/mL				
CN(C(=O)c1ccc(Cl)c(Cl)c1)[C@H]1CC[C@@]2(O)[C@H]3Cc4ccc(O)c5c4[C@@]2(CCN3CC2CC2)[C@H]1O5.O=C(O)C(=O)O [18a—Oxalate, 6-α-(3′,4′-Dichloro)-N-methylbenzamido-14-hydroxy-17-(cyclopropylmethyl)nordesmorphine oxalate]	6.7 mg/mL				
CN(C(=O)c1ccc(Cl)c(Cl)c1)[C@@H]1CC[C@@]2(O)[C@H]3Cc4ccc(O)c5c4[C@@]2(CCN3CC2CC2)[C@H]1O5.O=C(O)C(=O)O [18b—Oxalate, 6-β-(3′,4′-Dichloro)-N-methylbenzamido-14-hydroxy-17-(cyclopropylmethyl)nordesmorphine oxalate]	16 mg/mL				
O=C(N[C@@H]1CC[C@@]2(O)[C@H]3Cc4ccc(O)c5c4[C@@]2(CC[N+]3([O-])CC2CC2)[C@H]1O5)c1ccc([N+](=O)[O-])cc1 (stereo partly drawn) [Compound 40, 17-Cyclopropylmethyl-3,14β-dihydroxy-4,5α-epoxy-6β-[(4′-nitro)benzamido]morphinan-N-oxide]		6.7 ± 0.4 nM	590 ± 590 nM	38 ± 6.5 nM	
COc1ccc(C(=O)N[C@H]2CC[C@@]3(O)[C@H]4Cc5ccc(O)c6c5[C@@]3(CC[N+]4([O-])CC3CC3)[C@H]2O6)cc1OC (stereo partly drawn) [Compound 41, 17-Cyclopropylmethyl-3,14β-dihydroxy-4,5α-epoxy-6α-[(3′,4′-dimethoxy)benzamido]morphinan-N-oxide]		30 ± 3 nM	51 ± 2.45 nM	16 ± 2.7 nM	
COc1cccc(C(=O)N[C@@H]2CC[C@@]3(O)[C@H]4Cc5ccc(O)c6c5[C@@]3(CC[N+]4([O-])CC3CC3)[C@H]2O6)c1 (stereo partly drawn) [Compound 42, 17-Cyclopropylmethyl-3,14β-dihydroxy-4,5α-epoxy-6β-[(3′-methoxy)benzamido]morphinan-N-oxide]		16 ± 2 nM	1050 ± 38 nM	49 ± 8.6 nM	
O=C(N[C@@H]1CC[C@@]2(O)[C@H]3Cc4ccc(O)c5c4[C@@]2(CC[N+]3([O-])CC2CC2)[C@H]1O5)c1ccc(Cl)c(Cl)c1 (stereo partly drawn) [Compound 43, 17-Cyclopropylmethyl-3,14β-dihydroxy-4,5α-epoxy-6β-[(3′,4′-dichloro)benzamido]morphinan-N-oxide]		2 ± 0.2 nM	212 ± 11 nM	3.6 ± 0.43 nM	
CN(C(=O)c1ccc(I)cc1)[C@H]1CC[C@@]2(O)[C@H]3Cc4ccc(O)c5c4[C@@]2(CC[N+]3([O-])CC2CC2)[C@H]1O5 (stereo partly drawn) [Compound 47, 17-Cyclopropylmethyl-3,14-β-dihydroxy-4,5α-epoxy-6α-N-methyl-[(4′-iodo)benzamido]morphinan-N-oxide]		5.9 ± 0.4 nM	290 ± 17 nM	27.6 ± 0.8 nM	
CN(C(=O)c1ccc(C(C)(C)C)cc1)[C@H]1CC[C@@]2(O)[C@H]3Cc4ccc(O)c5c4[C@@]2(CC[N+]3([O-])CC2CC2)[C@H]1O5 (stereo partly shown) [Compound 48]					Ki (κ-opioid receptor; Table 1b, N-oxides): 14 ± 1 nM; Ki (δ-opioid receptor; read-out: Ki (nM) ± SEM, δ): 148 ± 10 nM; Ki (μ-opioid receptor; read-out: Ki (nM) ± SEM, μ): 26 ± 2 nM
CN(C(=O)c1ccc(Cl)cc1)[C@H]1CC[C@@]2(O)[C@H]3Cc4ccc(O)c5c4[C@@]2(CC[N+]3([O-])CC2CC2)[C@H]1O5 (stereo partly drawn) [Compound 50, 17-Cyclopropylmethyl-3,14-β-dihydroxy-4,5α-epoxy-6α-N-methyl-[(4′-chloro)benzamido]morphinan-N-oxide]					Ki (κ-opioid receptor; Table 1b, N-oxides): 77 ± 8 nM; Ki (δ-opioid receptor; read-out: Ki (nM) ± SEM, δ): 3330 ± 160 nM; Ki (μ-opioid receptor; read-out: Ki (nM) ± SEM, μ): 369 ± 18 nM
NC(=NO)c1cccc(C(=O)NC2CCC3(O)C4Cc5ccc(O)c6c5C3(CC[N+]4([O-])CC3CC3)C2O6)c1 (stereo not shown) [Compound 52]		26 ± 1.81 nM	1220 ± 45 nM	114 ± 3.3 nM	
N#Cc1cccc(C(=O)N[C@@H]2CC[C@@]3(O)[C@H]4Cc5ccc(O)c6c5[C@@]3(CC[N+]4([O-])CC3CC3)[C@H]2O6)c1 (stereo partly drawn) [Compound 53, 17-Cyclopropylmethyl-3,14β-dihydroxy-4,5α-epoxy-6β-[(3′ cyano)benzamido]morphinan-N-oxide]		426 ± 21.5 nM		117 ± 7.8 nM	Inhibition of agonist binding, δ (δ-opioid receptor): <50% inh
CN(C(=O)c1ccc(I)cc1)C1CCC2(O)C3Cc4ccc(O)c5c4C2(CC[N+]3([O-])CC2CC2)C1O5 (stereo not drawn) [Compound 54, 17-Cyclopropylmethyl-3,14-β-dihydroxy-4,5α-epoxy-6β-N-methyl-[(4′-iodo)benzamido]morphinan-N-oxide]		117 ± 10 nM	3060 ± 271 nM	148 ± 9.3 nM	
Cc1ccc(C(=O)N[C@@H]2CC[C@@]3(O)[C@H]4Cc5ccc(O)c6c5[C@@]3(CC[N+]4(C)[O-])[C@H]2O6)cc1 (stereo partly drawn) [Compound 55, 17-Methyl-3,14β-dihydroxy-4,5α-epoxy-6β-[(4′-methyl)benzamido]morphinan-N-oxide]		1190 ± 134 nM		244 ± 8.2 nM	Inhibition of agonist binding, δ (δ-opioid receptor): <50% inh
O=C(NC1CCC2(O)C3Cc4ccc(O)c5c4C2(CC[N+]3([O-])CC2CC2)C1O5)c1ccc(C(F)(F)F)c(F)c1 (stereo not drawn) [Compound 56, 17-Cyclopropylmethyl-3,14β-dihydroxy-4,5α-epoxy-6β-[(3′-fluoro-4′-trifluoromethyl)benzamido]morphinan-N-oxide]		3.8 ± 0.3 nM	352 ± 10 nM	8.3 ± 0.3 nM	
O=C(NC1CCC2(O)C3Cc4ccc(O)c5c4C2(CC[N+]3([O-])CC2CC2)C1O5)c1ccc(Cl)c(F)c1 (stereo not drawn) [Compound 59, 17-Cyclopropylmethyl-3,14β-dihydroxy-4,5α-epoxy-6β-[(4′-chloro-3′-fluoro)benzamido]morphinan-N-oxide]		2.5 ± 0.09 nM	390 ± 18 nM	14.1 ± 0.5 nM	
O=C(N[C@@H]1CC[C@@]2(O)[C@H]3Cc4ccc(O)c5c4[C@@]2(CC[N+]3([O-])CC2CC2)[C@H]1O5)c1ccc(Br)cc1 (stereo partly drawn) [Compound 63, 17-Cyclopropylmethyl-3,14β-dihydroxy-4,5α-epoxy-6β-[(4′-bromo)benzamido]morphinan-N-oxide]		6.3 ± 0.6 nM	246 ± 15 nM	7 ± 0.1 nM	
